Assay [1] deals with T1, human σ2 receptor (TMEM97) (Homo sapiens, UniProt Q5BJF2). The assay can be described thus: [3H]-DTG competition binding, Expi293 membranes.
Assay [2] has as its target T1, human σ2 receptor (TMEM97). The assay can be described thus: [3H]-DTG competition binding, Expi293 membranes. The source holds these as a separate data set.
Assay [3] concerns the target T1, human σ2 receptor (TMEM97). The assay can be described thus: biochemical. It counts as Expi293 membranes. To be noted: read-out: % of control remaining.
Assay [4] deals with T1, human σ2 receptor (TMEM97). The assay can be described thus: biochemical. It counts as Expi293 membranes.
Setting [5] is: 10 nM [3H]-DTG, 50 mM Tris pH 8.0, 37 °C, 90 min.

From paper doi:10.1101/2021.04.29.441652v1 (biorxiv, 2021) come the findings set out here.

T1 sequence (Q5BJF2 whole entry): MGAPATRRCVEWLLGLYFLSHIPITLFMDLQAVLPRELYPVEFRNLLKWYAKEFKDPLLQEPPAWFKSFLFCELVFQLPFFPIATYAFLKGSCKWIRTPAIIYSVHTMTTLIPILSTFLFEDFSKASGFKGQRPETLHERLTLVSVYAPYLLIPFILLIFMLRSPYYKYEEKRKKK

The Ki is the dissociation constant of the complex between target and ligand, obtained from inhibition or displacement. On to `c1ccc(CCCN2CCC(c3nnc4ccccn34)CC2)cc1` [Z163048780], for which the Ki in assay [1] is over 10000 nM.

In assay [2], `C1=C(c2c[nH]c3ccccc23)CCN(CCCc2ccccc2)C1` [Z295861754] showed an inhibitory constant (Ki) of 57 nM. In other words, the double-digit nanomolar range.

`C1=C(c2c[nH]c3ncccc23)CCN(CCCc2ccccc2)C1` [Z1241145220] displayed a Ki in assay [1] (setting [5]) of 3.7 nM. This counts as single-digit nanomolar.

`OC(CCc1ccccc1)CN1CC=C(c2c[nH]c3ncccc23)CC1` (centres unmarked) [Z1665845742] showed an inhibition constant Ki in assay [1] (setting [5]) of 5 nM. This Ki and that of the compound before are within 1.5-fold of each other.

On to `CC1CCN(C2CCC(NC(=O)C(=O)Nc3ccc(C(C)C)cc3)CC2)CC1` (centres unmarked) [ZINC000131303503], for which the remaining activity at 1 µM in assay [3] is 10.7%. The compound further showed an inhibition constant (Ki) in assay [4] of 14.7 nM.

Turning to `N/C(=N\Cc1ccc(F)cc1Br)NCC1CCC1` [ZINC000170908795], in assay [3], the remaining activity at 1 µM was determined as 0.9%. In addition, affinity in assay [4] was put at a Ki of 6.7 nM.

Take `O=C(CC1CCCC1)NC1CCN(C[C@H](O)C2CCCCC2)CC1` [ZINC000191344346]: the remaining activity at 1 µM in assay [3] was found to be 8.7%. Also, the Ki in assay [4] came out at 11.7 nM.

Regarding `c1ccc(CSc2cncc(N3CCC[C@H](N4CCCC4)CC3)n2)cc1` [ZINC000301801549], the remaining activity at 1 µM in assay [3] worked out at 6.9%. The compound also showed a Ki in assay [4] of 19.6 nM.

Consider `Cc1ccc([C@H]2CCN(CC3(O)CCC3)C2)c(C)c1` [ZINC000348332392], for which the remaining activity at 1 µM in assay [3] came to 5.2%. In addition, in assay [4], the Ki was 33.7 nM.

On to `CC(C)(C)[C@@H]1CCN(C[C@@H](O)COCc2ccccc2F)C1` [ZINC000409447221], for which the remaining activity at 1 µM in assay [3] came out at 9.7%. This compound yielded an inhibition constant (Ki) in assay [4] of 8.85 nM.

For `CCOC(=O)[C@@H](CC)N1CCN(C2CCC(C(C)C)CC2)CC1` (some centres unmarked) [ZINC000440321606], the remaining activity at 1 µM in assay [3] came out at 11.9%. Moreover, the Ki in assay [4] was 4.15 nM.

On to `C[C@@H](c1ccccc1)[C@@H](O)CN1CCC(c2c[nH]c3ncccc23)CC1` [ZINC000450573233], for which, in assay [3], the remaining activity at 1 µM came to 3.6%. The Ki in assay [4] is 4.3 nM.

On to `CN(C[C@]1(O)CCN(Cc2ccccc2)C1)C(=O)c1ccc(F)c2ccccc12` [ZINC000480785335], for which the remaining activity at 1 µM in assay [3] was found to be 9.8%. Moreover, in assay [4], affinity was put at a Ki of 12.9 nM.

On to `Cc1cc(C)c2cc(CN3CCC[C@H](N4CCCC4)CC3)[nH]c2c1` [ZINC000481989921], for which the remaining activity at 1 µM in assay [3] turned out to be 11.7%. This compound yielded a Ki in assay [4] of 21.6 nM.

As to `C[C@@H](C(=O)N(C)Cc1cccc(F)c1)N1CC=C(c2c[nH]c3ncccc23)CC1` [ZINC000533478938], the remaining activity at 1 µM in assay [3] worked out at 2.7%. This compound yielded a Ki in assay [4] of 34.5 nM.

With `Cc1ccc(CCC2CCN(C(=O)CN3C[C@@H]4CC[C@@H](O)[C@H]4C3)CC2)cc1` [ZINC000544117725], in assay [3], the remaining activity at 1 µM was determined as 0%. The affinity in assay [4] corresponds to a Ki of 10 nM.

For the compound `CC1CCC(O)(CN2CC(Cc3ccc(F)c(F)c3)C2)CC1` (centres unmarked) [ZINC000548355486], the remaining activity at 1 µM in assay [3] came to 0.4%. Besides, the Ki in assay [4] was determined as 2.4 nM.

For `Cc1cccc(C)c1OC[C@H](O)CN1CC[C@@H](CC2CC2)C1` [ZINC000559413424], the remaining activity at 1 µM in assay [3] came to 11.9%. The Ki in assay [4] worked out at 10.5 nM.

For `O[C@@H](COCc1ccccc1Cl)CN1CC[C@H](Cc2ccc(F)cc2)C1` [ZINC000605902355], the remaining activity at 1 µM in assay [3] amounted to 11.5%. Also, the affinity in assay [4] corresponds to a Ki of 13.7 nM.

Consider `Cc1ccc(CC2CN(CC3(O)CCSCC3)C2)cc1` [ZINC000656714762], for which the remaining activity at 1 µM in assay [3] came to 9.3%. The compound further registered an inhibition constant (Ki) in assay [4] of 67.8 nM.

Regarding `C1CCC([C@@H]2CCN(CCC3CCOCC3)C2)CC1` [ZINC000661577595], in assay [3], the remaining activity at 1 µM turned out to be 6.4%. The compound further came in with a Ki in assay [4] of 1.76 nM.

On to `c1ccc(N2CCC(NC[C@@H]3C[C@H]4CCC[C@@H]4O3)CC2)cc1` [ZINC000872109019], for which the remaining activity at 1 µM in assay [3] was found to be 11.6%. For the same compound, in assay [4], affinity was put at a Ki of 14.7 nM.

Consider `CC(C)(C)[C@@H]1CCN(C[C@@H](O)CC2(O)CCCCC2)C1` [ZINC000878406056], for which, in assay [3], the remaining activity at 1 µM is 11.8%. In addition, in assay [4], the Ki is 7.66 nM.

Turning to `CC(C)(NCc1ccc2c(c1)OCCO2)[C@H](O)c1ccccc1` [ZINC000895657866], in assay [3], the remaining activity at 1 µM is 3%. In assay [4], this compound returned a Ki of 21.4 nM.

With `O[C@@]1(CNCc2cccc3c2OCC3)CCc2ccccc21` [ZINC000921927365], the remaining activity at 1 µM in assay [3] came out at 12.5%. The compound also gave a Ki in assay [4] of 67.3 nM.

For the compound `CC1CC(CN2CC(N3CCN(C(=O)[C@H](C)C4CCCC4)CC3)C2)C1` (some centres unmarked) [ZINC000941634458], in assay [3], the remaining activity at 1 µM worked out at 12.7%. Moreover, affinity in assay [4] was put at a Ki of 20.3 nM.

For `CCc1nnsc1C(=O)N[C@H]1[C@@H]2CN(CC3CCCCCC3)C[C@@H]21` [ZINC000960887654], in assay [3], the remaining activity at 1 µM was found to be 12.9%. The same compound gave a Ki in assay [4] of 18.1 nM.

In the case of `Fc1ccccc1[C@H]1CCN(CC#Cc2cccc(Cl)c2)C1` [ZINC001170548029], in assay [3], the remaining activity at 1 µM came out at 8.4%. In addition, in assay [4], the Ki came to 22.6 nM.

As to `CC(C)CCO[C@@H]1CCN(C[C@H]2CC3(CCCCC3)CO2)C1` [ZINC001196519317], the remaining activity at 1 µM in assay [3] turned out to be 1.2%. Further, in assay [4], affinity was put at a Ki of 2.4 nM.

In the case of `Fc1c(CN2CCN(C[C@@H]3CCCO3)CC2)ccc(Br)c1Cl` [ZINC001237901728], in assay [3], the remaining activity at 1 µM turned out to be 4.5%. Besides, the affinity in assay [4] corresponds to a Ki of 27 nM.

Turning to `O[C@@H](COCc1ccccc1F)CN1CC(Cc2ccccc2C(F)(F)F)C1` [ZINC001254761628], the remaining activity at 1 µM in assay [3] amounted to 1.1%. Also, the affinity in assay [4] corresponds to a Ki of 4.7 nM.

`C[C@H](C(=O)NC[C@]1(O)CCN(CCC2CCCC2)C1)c1ccccc1` [ZINC001376084945]: the remaining activity at 1 µM in assay [3] was 9.7%. The same compound yielded a Ki in assay [4] of 13.5 nM.

On to `CC[C@@H](CO)N1CCC(CCc2ccc(F)cc2F)CC1` [ZINC001460312963], for which, in assay [3], the remaining activity at 1 µM is 8%. In assay [4], affinity was put at a Ki of 5.2 nM.

As for `O[C@@H](CN1CC[C@@H](C2CCCCC2)C1)CC1(O)CCCCC1` [ZINC001460371878], in assay [3], the remaining activity at 1 µM was 10.9%. Besides, affinity in assay [4] was put at a Ki of 7.92 nM.

Turning to `N[C@H](Cc1ccccn1)C(=O)NCc1ccccc1C(F)(F)F` [ZINC001580410121], the remaining activity at 1 µM in assay [3] was 122%.

`C[C@@H]1CN(CC(=O)NCCCO[C@@H](C)c2ccccc2)[C@H](C)CCO1` [ZINC001655120594]: in assay [3], the remaining activity at 1 µM was determined as 112%.

In assay [2] (setting [5]), ZINC450573233 displayed a Ki of 4.3 nM.

As for ZINC895657866, the affinity in assay [2] (setting [5]) corresponds to a Ki of 21.4 nM.
